Values quoted from earlier work, collected in patent publication US20110230399A1, “Methods for Treating Obesity Related Disease” (priority 2008, published 2011).

Experiments:
hypothalamic slices = conditions: in vitro
[1] = in vivo

NPY13-36: Neuropeptide Y fragment 13-36; full agonist at the Y2 receptor
NPY release from hypothalamic slices (hypothalamic slices): inhibits NPY release
stimulation of food intake [1]: does not stimulate food intake
